Reference: patent US20200315923A1, “DESINFECTANT BONE AND DENTAL FILLER MATERIALS COMPRISING LIPOSOMES” (Cementic, priority 2017, published 2020)

Key:
Enterococcus faecalis = test: Agarose gel diffusion test; type: cell-based; conditions: agar diffusion, this experiment
Method: An adaptation of the agarose gel diffusion test was tested and validated for dental cements. The analysis was performed using the plaque assay. In the case of a test on samples of various concentrations, the ICM can be estimated using a software available on an on-line platform developed by Bonev in 2008 (http://agardiffusion.com) (Principles of assessing bacterial susceptibility to antibiotics using the agar diffusion method J. Antimic. Chemoth., 61 12951301).
For this experiment, liposomes and disinfecting fillers were produced as described in 8.1 and 7.6 a.
3 mm circular wells were punched using a disposable biopsy needle into Mueller-Hinton agar. The agar was then homogeneously inoculated with 100 μL of a solution of Enterococcus faecalis adjusted to a concentration of 0.5 MacFarland. Bio Root™ cement was then prepared (500 mg powder+250 μL liquid+/−35 μL CEM CHX 0918-001). The wells were then filled with cement using a pipetman for viscous solutions. The agar plates were then incubated at 37° C. under aerobic conditions for 24 hours. The area of growth inhibition was then measured using a ruler (FIG. 26).
To measure the effect of the prolonged release of antimicrobial agent, agar plates were prepared as above but without being inoculated with E. faecalis. […] The plates were then incubated for 24 hours and the lysis areas measured with a ruler.

Gram+ bacteria = conditions: cited from earlier work
Gram-bacteria = conditions: cited from earlier work

N=C(NCCCCCCNC(=N)NC(=N)Nc1ccc(Cl)cc1)NC(=N)Nc1ccc(Cl)cc1.O=C(O)[C@H](O)[C@@H](O)[C@H](O)[C@H](O)CO.O=C(O)[C@H](O)[C@@H](O)[C@H](O)[C@H](O)CO [chlorhexidine digluconate]
calculated MIC (Enterococcus faecalis): 15.5 µg/mL

[H]/N=C(\N/C(=N/[H])NCCCCCCNC(=N)NC(=N)Nc1ccc(Cl)cc1)Nc1ccc(Cl)cc1 [chlorhexidine]
MIC (concentration corresponding to the elimination of 90% of the bacteria) (Gram+ bacteria): 22 µg/mL
MIC (concentration corresponding to the elimination of 90% of the bacteria) (Gram-bacteria): 40 µg/mL
